# Patent EP2332917B1, “Compounds for PIM kinase inhibition and for treating malignancy” (Sygnis Bioscience GmbH & Co. KG, priority 2009, dated 2011)
# Entries after “also recorded” stand apart in the source; their conditions may differ.
# Molecular target: T1, PIM-1 kinase (Homo sapiens, UniProt P11309)
# T1 construct: purchased Cell Signaling Technology Inc., Boston, USA
# Assay: In vitro assay for PIM-1 kinase inhibition (PIM-1 Kinase Assay Kit, colorimetric ELISA readout)
# Assay type: biochemical
# Conditions: for PIM-1 kinase inhibition (result in words): increasing concentrations 0.1 to 100 µM, Fig. 1 (1.5 ng PIM-1 kinase) and Fig. 2 (2.5 ng PIM-1 kinase); for % remaining PIM-1 kinase activity: test compound at final concentration 100 µM, normalized to positive control (no test compound) = 100 % activity, 1.5 ng (A-D series) or 2.5 ng (E series) PIM-1 kinase, 200 µM ATP
# Method: • Fig. 1: The compounds 1-chloro-5-([1,4]diazepane-1-sulfonyl)-8-propoxy-isoquinoline (compound A), 1-chloro-5-(piperazin-1-sulfonyl)-8-methoxy-isoquinoline (compound B), […] (compound C), and 1-chloro-5-([1,4]diazepane-1-sulfonyl)-6-methoxy-isoquinoline (compound D) are potent PIM kinase inhibitors. In vitro assays of PIM-1 kinase activity (1.5 ng) in the present of increasing concentrations of the compounds A, B, C or D were performed as described within example 5. An assay without additional test compound served as positive control for the assay (pos) and an assay without PIM-1 kinase served as negative assay (neg). […] Each assay result was normalized in comparison to the positive control which was defined as 100 % activity. […] In vitro assays of PIM-1 kinase activity (2.5 ng) in the present of increasing concentrations of the compound E were performed as described within example 5. An assay without additional test compound served as positive control for the assay (pos) and an assay without PIM-1 kinase served as negative assay (neg). […] Each assay result was normalized in comparison to the positive control which was defined as 100 % activity.
# The in vitro assay for PIM-1 kinase inhibition was performed using the PIM-1 Kinase Assay Kit (Cell Signaling Technology Inc., Boston, USA) according to the manufacture's instruction. Briefly, 1.5 or 2.5 ng PIM-1 kinase has been dissolved in 50 µl assay buffer (25 mM Tris-Hcl (pH 7.5), 10 mM MgCl2, 5 mM beta-glycerophosphate, 0.1 mM Na3VO4, 2 mM DTT, 200 µM ATP, and 1.5 µM peptide substrate) and test compound has been added to a final concentration in a range of 0.1 to 100 µM. After 30 minutes incubation at ambient temperature the reaction was stopped by adding 50 µl Stop buffer (50 mM EDTA, pH 8) per reaction. An aliquot of 25 µl per reaction was diluted each by 75 µl water and transferred to a 96-well streptavidin-coated plate. After 60 minutes incubation and three times washing with PBS, 100 µl/well primary antibody (Phospho-Bad (Ser112) antibody, 1:1000 diluted in PBS) was added. After further 2 h incubation and three times washing with PBS, an usual colorimetric ELISA assay was performed using a HRP labeled second antibody according to the manufacture's instructions. A PIM kinase reaction without addition of a test compound served as positive control (pos) and an assay without PIM kinase served as negative control (neg). […] The PIM-1 kinase inhibition of the test compounds (1-chloro-5-([1,4]diazepane-1-sulfonyl)-8-propoxy-isoquinoline (compound A), 1-chloro-5-(piperazin-1-sulfonyl)-8-methoxy-isoquinoline (compound B), 1-methyl-5-([1,4]diazepane-1-sulfonyl)-8-methoxy-isoquinoline (compound C), and 1-chloro-5-([1,4]diazepane-1-sulfonyl)-6-methoxy-isoquinoline (compound D)) was measured in a first series of assays, and the one of the compound 5-([1,4]diazepane-1-sulfonyl)-8-methoxy-isoquinoline (compound E) was measured in a second series of assays. Within each series of assays the measured PIM-1 kinase activity was normalized in comparison to the positive control (pos) which was defined as 100 % activity. […] The table below summarizes the percentage of the remaining PIM-1 kinase activity in the presence of the test compounds in a final concentration of 100 µM.
# T1 sequence (P11309 whole entry): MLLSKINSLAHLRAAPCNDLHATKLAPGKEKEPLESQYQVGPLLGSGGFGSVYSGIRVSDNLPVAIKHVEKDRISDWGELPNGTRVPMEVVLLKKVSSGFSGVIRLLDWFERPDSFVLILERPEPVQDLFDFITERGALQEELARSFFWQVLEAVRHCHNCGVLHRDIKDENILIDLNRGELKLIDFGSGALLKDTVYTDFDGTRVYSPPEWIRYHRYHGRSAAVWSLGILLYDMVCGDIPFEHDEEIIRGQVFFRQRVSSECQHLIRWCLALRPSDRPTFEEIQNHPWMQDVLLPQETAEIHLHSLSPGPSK
SMILES,% remaining PIM-1 kinase activity [%],PIM-1 kinase inhibition (result in words)
"COc1ccc(S(=O)(=O)N2CCCNCC2)c2ccnc(C)c12 [C, 1-methyl-5-([1,4]diazepane-1-sulfonyl)-8-methoxy-isoquinoline]",31,potent PIM-1 kinase inhibitors; also recorded: potent PIM inhibitory effect
"COc1ccc2c(Cl)nccc2c1S(=O)(=O)N1CCCNCC1 [D, 1-chloro-5-([1,4]diazepane-1-sulfonyl)-6-methoxy-isoquinoline]",29,potent PIM-1 kinase inhibitors; also recorded: potent PIM inhibitory effect
"COc1ccc(S(=O)(=O)N2CCNCC2)c2ccnc(Cl)c12 [B, 1-chloro-5-(piperazin-1-sulfonyl)-8-methoxy-isoquinoline]",33,potent PIM-1 kinase inhibitors; also recorded: potent PIM inhibitory effect
"CCCOc1ccc(S(=O)(=O)N2CCCNCC2)c2ccnc(Cl)c12 [Compound A, 1-chloro-5-([1,4]diazepane-1-sulfonyl)-8-propoxy-isoquinoline]",23,potent PIM-1 kinase inhibitors; also recorded: potent PIM inhibitory effect

# Further lines, with some results ahead:
% remaining PIM-1 kinase activity [%],SMILES,PIM-1 kinase inhibition (result in words)
17,"COc1ccc(S(=O)(=O)N2CCCNCC2)c2ccnc(Cl)c12 [G, 1-chloro-8-methoxy-Fasudil, reference compound]",very potent PIM-1 inhibitor
71,"O=S(=O)(c1cccc2cnccc12)N1CCCNCC1 [F, Fasudil, reference compound]",at the most very weak PIM-1 inhibition
46,"COc1ccc(S(=O)(=O)N2CCCNCC2)c2ccncc12 [E, 5-([1,4]diazepane-1-sulfonyl)-8-methoxy-isoquinoline, reference compound]",at most a moderate PIM-1 kinase inhibition; also recorded: only weak PIM inhibitory effect
